Measurements published in US20240083917A1, “Polycyclic Kinase Inhibitor” (priority 2021, published 2024).

Target: DNA-PK (Homo sapiens (Human), UniProt P78527)
Assay: In vitro enzymatic activity, ADP-Glo Kinase Assay
Format: biochemical
Conditions: starting concentration 1 μM, 10 concentrations
Experimental: Test substances: the compounds of the present disclosure, whose structural formulas and preparation methods are shown in the Examples.
1. Preparation of 1-Fold Kinase Buffer
1) The detection starting concentration of the compound was 1 μM, and it was prepared to a 100-fold concentration, namely 100 μM. 2 μl of […] was taken, 198 μl of 100% DMSO was added, and it was prepared into 100 μM compound solution. 100 μl of the compound of 100-fold concentration was added to a second well on a 96-well plate, and 60 μl of 100% DMSO was added to other wells. 30 μl of the compound was taken from the second well and added to a third well, it was diluted downwards sequentially by 3 times, and there was a total of 10 concentrations diluted.
2) 100 μl of 100% DMSO and positive control wortmannin with the highest concentration (400 nM) were transferred to two empty wells as a Max well and a Min well respectively.
3) 50 nl of the compound was transferred to a 384-well plate by Echo.
3. Preparation of 2× Kinase Solution
1) The 1-fold kinase buffer was used to prepare 2-fold DNA-PK kinase solution.
2) 2.5 μl of the 2-fold kinase solution was transferred to a reaction well of the 384-well plate.
3) It was shaken, mixed uniformly, and still placed at a room temperature.
4. Preparation of 2× Substrate Solution
1) The 1-fold kinase buffer was used to prepare 2-fold substrate solution.
2) 2.5 μl of the 2-fold substrate solution was transferred to the reaction well of the 384-well plate for a starting reaction.
3) It was shaken, and mixed uniformly.
5. Kinase Reaction and Termination
1) The 384-well plate was covered by a cover, and incubated at 28° C for 3 hours.
2) 5 μl of ADP-Glo reagent was transferred, and incubated at 28° C. for 2 hours.
6. Detection of Reaction Result
1) 10 μl of a kinase detection reagent was transferred into the reaction well of the 384-well plate for terminating the reaction.
2) It was still placed at the room temperature for 30 minutes.
Sample values were read on Envision.
8. Inhibition Rate Calculation
1) Data was copied from Envision.
2) It was converted into inhibition rate data.
Inhibition percentage=(max-conversion)/(max-min)*100. Wherein, max refers to the conversion rate of a DMSO control, min refers to the conversion rate of a control without enzyme activity, and conversion refers to the conversion rate of the test compound at each concentration.
3) The data was imported into MS Excel and XLFit excel add-in version 5.4.0.8 was used for curve fitting.

Structure (SMILES)	IC50 [nM]
COC1(C)CCC2(CC1)CN=C1N(C)c3cnc(Nc4cn5ncnc5cc4C)nc3N12 (stereo not shown) [Compound 15-1, 4-methoxy-4,5′-dimethyl-N-(7-methyl-[1,2,4]triazolo[1,5-a]pyridin-6H)-5′7′-dihydrospiro[cyclohexane-1,8′-imidazo[1,2-e]purin]-2′-amine]	1.37
Cc1cc2ncnn2cc1Nc1ncc2c(n1)N1C(=NC[C@]13CCCOCC3)N2C [Compound 19-2]	1.7
Cc1cc2ncnn2cc1Nc1ncc2c(n1)N1C(=NCC13CCOCC3)N2C [Compound 1, 5-methyl-N-(7-methyl-[1,2,4]triazolo[1,5-a]pyridin-6-yl)-2′,3′,5,5′,6′,7-hexanydrospiro[imidazo[1,2-e]purine-8,4′-pyran]-2-amine]	0.82
Cc1cc2ncnn2cc1Nc1ncc2c(n1)N1C(=NCC13CCC(F)(F)CC3)N2C [Compound 5, 4,4-difluoro-5″-methyl-N-(7-methyl-[1,2,4]-triazolo[1,5-a]pyridin-6-yl)-5′,7′-dihydrospiro[cyclohexane-1,8′-imidazo[1,2-e]purine]-2′-amine]	1.63
COC1CCC2(CC1)CN=C1N(C)c3cnc(Nc4cn5ncnc5cc4C)nc3N12 (single isomer, unassigned) [Compound 16-1, 4-methoxy-5′-methyl-N-(7-methyl-[1,2,4]triazolo[1,5-a]pyridin-6-yl)-5′,7′-dihydrospiro[cyclohexane-1,8′-imidazo[1,2-e]purin]-2′-amine]	3
Cc1cc2ncnn2cc1Nc1ncc2c(n1)N1C(=NCC13CCCOCC3)N2C (stereo not shown) [Compound 19, 5methyl-N-(7-methyl-[1,2,4]triazolo[1,5-a]pyridin-6-yl)-5,7-dihydrospiro[imidazo[1,2-e]purine-8,4′-oxepan]-2-amine]	1.6
Cc1cc2ncnn2cc1Nc1ncc2c(n1)N1C(=NCC13CCC(O)CC3)N2C (single isomer, unassigned) [Compound 7-2, 5′-methyl-2′-((7-methyl-[1,2,4]-triazolo[1,5-a]pyridin-6-yl)amino)-5′,7″-dihydrospiro[cyclohexane-1,8′-imidazo[1,2-e]purine]-4-ol]	0.72
Cc1cc2ncnn2cc1Nc1ncc2c(n1)N1C(=NCC13CCOC3)N2C (stereo not shown) [Compound 18, 5′-methyl-N-(7-methyl-[1,2,4]-triazolo[1,5-a]pyridin-6-yl)-4,5,5′,7′-tetrahydro-2-H-spiro[furan-3, 8′-imidazo[1,2-e]purin]-2′-amine]	1.4
Cc1cc2ncnn2cc1Nc1ncc2c(n1)N1C(=NCC13CCS(=O)(=O)CC3)N2C [Compound 9, 5-methyl-2-((7-methyl-[1,2,4]-triazolo[1,5-a]pyridin-6-yl)amino)-2′,3′,5,5′,6′,7-hexahydrospiro[imidazo[1,2-e]purine-8,4′-thiopyran]1′,1′-dioxide]	21
Cc1cc2ncnn2cc1Nc1ncc2c(n1)N1C(=NCC13CCCCC3)N2C [Compound 4, 5′-methyl-N-(7-methyl-[1,2,4]triazolo[1,5-a]pyridin-6-yl)-5′,7′-dihydrospiro[cyclonexane-1,8′-imidazo[1,2-e]purine]-2′-amine]	0.8
Cc1cc2ncnn2cc1Nc1ncc2c(n1)N1C(=NCC13CCC(=O)CC3)N2C [Compound 6, 5′-methyl-2-((7-methyl-[1,2,4]-triazolo[1,5-a]pyridin-6-yl)amino)-5′,7′-dihydrospiro[cyclonexane-1,8′-imidazo[1,2-e]purine]-4-one]	4.8
COC1CCC2(CC1)CN=C1N(C)c3cnc(Nc4cn5ncnc5cc4C)nc3N12 (single isomer, unassigned) [Compound 16-2, 4-methoxy-5′-methyl-N-(7-methyl-[1,2,4]triazolo[1,5-a]pyridin-6-yl)-5′,7′-dihydrospiro[cyclohexane-1,8′-imidazo[1,2-e]purin]-2′-amine]	2.2
Cc1cc2ncnn2cc1Nc1ncc2c(n1)N1C(=NCC13CC[S+]([O-])CC3)N2C (stereo not shown) [Compound 20, 5-methyl-2-((7-methyl-[1,5-a]pyridin-6-yl)amino)-2′,3′,5,5′,6′,7-hexanydrospiro[imidazo[1,2-e]purine-8,4′-thiopyran]-1′-oxide]	18.7
Cc1cc2ncnn2cc1Nc1ncc2nc3n(c2n1)C1(CCOCC1)CN3 [Compound 3, N-(7-methyl[1,2,4]-triazolo[1,5-a]pyridin-6-yl)-2′,3′,5′,6,6′,7-hexahydrospiro[imidazo[1,2-e]purine-8,4′-pyran]-2-amine]	10.6
Cc1cc2ncnn2cc1Nc1ncc2nc3n(c2n1)C1(CCOCC1)CN3C [Compound 2, 6-methyl-N-(7-methyl-[1,2,4]triazolo[1,5-a]pyridin-6yl)-2′,3′,5′,6,6′,7-hexahydrospiro[imidazo[1,2-e]purine-8,4′-pyran]-2-amine]	22
Cc1cc2ncnn2cc1Nc1ncc2c(n1)N1C(=NCC1(C)CCO)N2C (stereo not shown) [Compound 17, 2-(5,8-dimethyl-2-((7-methyl-[1,2,4]-triazolo[1,5-a]pyridin-6-yl)amino)-7,8-dihydro-5H-imidazo[1,2-e]purin-8-yl) ethan-1-ol]	9.8
Cc1cc2ncnn2cc1Nc1ncc2c(n1)N1C(=NCC13CCSCC3)N2C [Compound 8, 5-methyl-N-(7-methyl-[1,2,4]triazolo[1,5-a]pyridin-6yl)-2′,3′,5,5′,6′,7-hexahydrospiro[imidazo[1,2-]purine-8,4′thiopyran]-2-amine]	0.89
Cc1cc2ncnn2cc1Nc1ncc2c(n1)N1C(=NCC13CCC(O)CC3)N2C (single isomer, unassigned) [Compound 7-1, 5′-methyl-2′-((7-methyl-[1,2,4]-triazolo[1,5-a]pyridin-6-yl)amino)-5′,7″-dihydrospiro[cyclohexane-1,8′-imidazo[1,2-e]purine]-4-ol]	0.62
Cc1cc2ncnn2cc1Nc1ncc2c(n1)N1C(=NC[C@@]13CCCOCC3)N2C [Compound 19-1]	1.1
